From ChEMBL document CHEMBL1201862, “PubChem BioAssay data set” (2004) come the findings set out here.

Molecules are shown by their SMILES. Calls of active or inactive are those of the source.

The target of experiment [1] is ATP-dependent molecular chaperone HSP82 (Candida albicans (strain WO-1) (Yeast), UniProt C4YTQ8). In words: loss of DOC-induced GRE-beta-galactosidase reporter signal, dose response, Hsp90 inhibitor project, S. cerevisiae, luminescence (AID 2400).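 Further: beta-galactosidase luminescence from glucocorticoid response element reporter as proxy for Hsp90 function; inhibitor potency where signal loss means Hsp90 inhibition.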 The class given is functional, cell-based.
The nature of experiment [2]: C. albicans growth with fluconazole, confirmation, fluorescence, retest (AID 2467). The class given is functional, cell-based.
Experiment [3] can be described thus: inhibitors of intracellular T. cruzi replication, confirmation, NIH3T3 host cells, beta-gal luminescence (AID 2044).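 Further: intracellular parasites grown in NIH/3T3 mouse fibroblasts as host cells; luminescent beta-galactosidase reporter signal from transgenic T. cruzi replicating inside host cells; inhibitors lower the luminescence signal.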 In kind it is functional, cell-based.
The test system of experiment [4] is Jurkat. In words: SAR Analysis of small molecule inhibitors of T-cell specific antigen receptor-induced NF-kB activation in a Jurkat cell line using a luminescence assay - Set 2. [Related pubchem assays (depositor defined):AID435003, AID435012, AID465]. Conditions: Homo sapiens. In kind it is functional, cell-based.
Experiment [5] is described as follows: Shn3 3'UTR reporter inhibitors, dose response, cell-based, Clone20 osteoblasts, firefly luciferase, cherry-picked (AID 624132).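 Further: firefly luciferase luminescence from reporter carrying the Shn3 3'UTR in osteoblasts.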 The class given is functional.
Experiment [6] can be described thus: NIH-3T3 fibroblast cytotoxicity, dose response, cytotoxicity control, cell-based, fluorescence, Alamar Blue, secondary assay (AID 2327).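 Further: NIH-3T3 mouse fibroblasts cultured with fluconazole at 8 µg/mL.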 The class given is functional. (The colour change of resazurin is a common sign of viable cells or microbes.)
Experiment [7] in a line: cytotoxicity toward NIH3T3 fibroblasts, dose response, counter-screen, cell-based, ATP luminescence, mouse fibroblasts (AID 2010).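 Further: cells exposed to compound for about 90 hours before reading.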 In kind it is functional. (Counterscreens check selectivity or assay interference.)
Experiment [8] deals with HEK293. In words: SAR Analysis of small molecule inhibitors of T-cell specific antigen receptor-induced NF-kB activation in a HEK-293T cell line using a luminescence assay. [Related pubchem assays (depositor defined):AID435003, AID435012, AID489026]. In kind it is functional, cell-based. The conditions noted are these: Homo sapiens.
Experiment [9] in a line: cells. The class given is functional, cell-based.
Experiment [10] can be described thus: HepG2 cell cytotoxicity, dose response, cytotoxicity control for Shn3 inhibitor project, CellTiter-Glo, cherry-picked (AID 624134). In kind it is functional, cell-based. A general note: Cellular ATP, detected with luciferase, serves as a proxy for viable cell number.
In experiment [11] the test system is HEK293. In words: cytotoxicity in HEK293T NF-kB-Luc cells, SAR follow-up, cytotoxicity control for NF-kB activator project, cell-based, resazurin fluorescence (AID 493251). The class given is functional.
Experiment [12] can be described thus: cells. The class given is functional, cell-based. The source holds these as a separate data set.
A further experiment concerns the target Nonstructural protein 1 (Influenza A virus, UniProt Q194T2). In kind it is functional, Influenza A virus (A/California/07/2009(H1N1)).
Experiment [13] concerns HEK293. In words: SAR Analysis of small molecule inhibitors of T-cell specific antigen receptor-induced NF-kB activation in a HEK-293T cell line using a luminescence assay - Set 2. [Related pubchem assays (depositor defined):AID435003, AID435012, AID489026]. The conditions noted are these: Homo sapiens. In kind it is functional, cell-based.
The nature of experiment [14]: Counterscreen for AddAB inhibitors: absorbance-based bacterial cell-based high throughput dose response assay for inhibitors of bacterial viability. [Related pubchem assays (depositor defined):AID435030, AID449728, AID449731, AID488942, AID488955, AID488956]. In kind it is functional.
Experiment [15] relates to Jurkat. In words: SAR Analysis of small molecule inhibitors of T-cell specific antigen receptor-induced NF-kB activation in a Jurkat cell line using a luminescence assay. [Related pubchem assays (depositor defined):AID435003, AID435012, AID465]. The class given is functional, cell-based. Conditions: Homo sapiens.
Experiment [16] is described as follows: control 3'UTR Renilla luciferase suppression, dose response, counter-screen for Shn3 inhibitor project, cell-based, Clone20-Shn3RL, cherry-picked (AID 624133). The class given is functional.
For a further experiment, the target named is Exodeoxyribonuclease V (Escherichia coli (strain K12), UniProt P04993+P07648+P08394). In words: E. coli RecBCD inhibitors, dose response, counter-screen for AddAB inhibitor project, absorbance, V66 E. coli, mutant T4 phage (AID 492957). In kind it is functional, cell-based, Escherichia coli str. K-12 substr. MG1655.
For experiment [17], the target named is T1, Serine/threonine-protein phosphatase (Candida dubliniensis (strain CD36 / CBS 7987 / NCPF 3949 / NRRLY-17841) (Yeast), UniProt B9W6M3).
T1 sequence (B9W6M3 whole entry): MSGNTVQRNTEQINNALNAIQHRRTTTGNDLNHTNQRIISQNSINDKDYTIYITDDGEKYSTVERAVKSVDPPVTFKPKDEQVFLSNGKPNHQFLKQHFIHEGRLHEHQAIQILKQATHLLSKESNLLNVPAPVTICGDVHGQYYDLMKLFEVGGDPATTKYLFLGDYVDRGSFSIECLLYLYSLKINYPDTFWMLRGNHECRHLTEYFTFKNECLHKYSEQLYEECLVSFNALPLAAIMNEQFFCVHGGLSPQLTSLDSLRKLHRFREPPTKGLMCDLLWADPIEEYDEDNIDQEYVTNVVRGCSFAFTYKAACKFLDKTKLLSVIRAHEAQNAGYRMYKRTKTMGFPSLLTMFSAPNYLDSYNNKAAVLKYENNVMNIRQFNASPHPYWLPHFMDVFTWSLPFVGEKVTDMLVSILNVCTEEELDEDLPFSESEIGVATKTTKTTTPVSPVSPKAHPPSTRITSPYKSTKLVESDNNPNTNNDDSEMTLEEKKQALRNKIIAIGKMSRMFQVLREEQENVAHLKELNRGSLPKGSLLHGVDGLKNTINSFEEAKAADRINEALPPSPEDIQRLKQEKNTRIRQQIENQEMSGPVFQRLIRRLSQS
In words: calcineurin pathway inhibitors in yeast reporter, dose response, S. cerevisiae, CDRE-lacZ, luminescence, secondary (AID 2388).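 Further: yeast reporter cells carrying a calcineurin-responsive lacZ construct stimulated with calcium chloride; luminescent beta-galactosidase reporter signal in whole cells rather than isolated phosphatase activity; potency for inhibition where a drop in reporter signal means calcineurin blockade.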 In kind it is functional, cell-based.

Experiment [18] addresses Heat shock protein HSP 90-alpha (Homo sapiens, UniProt P07900). In kind it is functional, organism-based.
Another experiment relates to INS1. In words: beta cell apoptosis inhibitors, cytokine rescue, dose response, luminescence, retest (AID 449756).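 Further: cell death triggered by IL-1 beta plus TNF-alpha plus IFN-gamma mixture; protective hits raise ATP signal compared with cytokine alone wells.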 The class given is functional, cell-based. The conditions noted are these: Rattus norvegicus.
In experiment [19] the target is T2, RNA-binding protein pos-1 (Caenorhabditis elegans, UniProt G5EF15).
T2 sequence (G5EF15 whole entry): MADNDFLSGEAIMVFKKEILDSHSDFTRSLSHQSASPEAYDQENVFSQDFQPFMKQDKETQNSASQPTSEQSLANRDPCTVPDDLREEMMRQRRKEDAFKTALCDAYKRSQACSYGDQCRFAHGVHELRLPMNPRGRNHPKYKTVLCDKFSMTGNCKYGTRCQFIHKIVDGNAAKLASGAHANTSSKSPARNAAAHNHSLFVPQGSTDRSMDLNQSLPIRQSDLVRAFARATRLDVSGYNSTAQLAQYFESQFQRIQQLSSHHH
In words: inhibitors of POS-1/mex-3 RNA binding, dose response, biochemical, fluorescence polarization (AID 1964).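 Further: purified POS-1 fused to maltose binding protein made in E. coli; potency of compounds blocking POS-1 binding to fluorescent RNA.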

For experiment [20], the target named is T3, Zinc finger protein mex-5 (Caenorhabditis elegans, UniProt Q9XUB2).
T3 sequence (Q9XUB2 whole entry): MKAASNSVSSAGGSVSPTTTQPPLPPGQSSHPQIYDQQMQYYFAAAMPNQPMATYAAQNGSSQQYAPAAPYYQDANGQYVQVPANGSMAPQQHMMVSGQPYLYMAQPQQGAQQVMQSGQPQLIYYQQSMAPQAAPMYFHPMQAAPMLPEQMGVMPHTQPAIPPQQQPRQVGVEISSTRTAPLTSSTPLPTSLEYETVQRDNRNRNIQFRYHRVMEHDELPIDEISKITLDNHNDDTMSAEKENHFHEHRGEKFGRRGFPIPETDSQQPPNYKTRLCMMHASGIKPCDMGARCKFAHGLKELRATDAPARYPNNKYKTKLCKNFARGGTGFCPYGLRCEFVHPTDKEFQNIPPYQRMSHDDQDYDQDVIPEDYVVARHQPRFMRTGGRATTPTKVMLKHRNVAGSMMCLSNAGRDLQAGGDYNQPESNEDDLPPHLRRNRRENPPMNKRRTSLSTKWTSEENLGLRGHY
In words: MEX-5/TCR-2 RNA interaction inhibitors, dose response, biochemical, C. elegans, fluorescence polarization (AID 1960).

Another experiment has as its target ORF 73 (Human herpesvirus 8, UniProt O40947). In words: inhibitors of C-LANA binding to LBS DNA, dose response, biochemical, fluorescence polarization, cherry-picked samples (AID 504725).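 Further: fluorescence polarization of a labeled DNA duplex reporting LANA DNA binding; potency is for inhibitors that block LANA binding to the DNA.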 More on the design: species or system Human gammaherpesvirus 8.
Experiment [21] deals with T4, Rac GTPase-activating protein 1 (Homo sapiens, UniProt Q9H0H5).
T4 sequence (Q9H0H5 whole entry): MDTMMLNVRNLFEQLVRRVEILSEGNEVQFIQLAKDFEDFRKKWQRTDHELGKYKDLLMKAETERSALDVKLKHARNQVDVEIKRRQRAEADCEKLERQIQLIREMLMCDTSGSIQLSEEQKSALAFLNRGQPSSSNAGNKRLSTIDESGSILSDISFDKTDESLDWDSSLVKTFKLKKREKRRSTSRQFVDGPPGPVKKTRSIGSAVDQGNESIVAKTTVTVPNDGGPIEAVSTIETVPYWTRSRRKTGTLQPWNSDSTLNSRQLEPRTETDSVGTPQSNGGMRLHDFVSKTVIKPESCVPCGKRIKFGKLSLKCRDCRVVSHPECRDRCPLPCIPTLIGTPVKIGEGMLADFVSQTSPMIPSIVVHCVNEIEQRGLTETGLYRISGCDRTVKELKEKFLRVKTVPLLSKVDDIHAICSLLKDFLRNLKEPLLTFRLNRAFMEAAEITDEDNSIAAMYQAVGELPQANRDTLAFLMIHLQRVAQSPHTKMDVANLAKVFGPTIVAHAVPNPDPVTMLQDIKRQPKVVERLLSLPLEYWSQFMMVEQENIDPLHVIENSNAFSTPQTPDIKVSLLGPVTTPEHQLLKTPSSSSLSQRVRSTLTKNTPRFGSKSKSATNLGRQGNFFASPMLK
In words: MgcRacGAP GTPase-activating activity inhibitors, confirmation, biochemical, ADP Hunter fluorescence, primary and confirmatory (AID 624330). In kind it is functional.

The target in experiment [22] is T5, Small ubiquitin-related modifier 1 (Homo sapiens, UniProt P63165). In words: inhibitors of SUMO1 peptide binding, dose response, biochemical, fluorescence polarization, uHTS hits (AID 624382). In kind it is functional. The conditions noted are these: read-out: IC50_Mean.
Experiment [23] has as its target T5, Small ubiquitin-related modifier 1. In words: inhibitors of SUMO1 partner interactions, dose response, biochemical, FRET (AID 624383). In kind it is functional. The conditions noted are these: read-out: IC50_Mean.
Experiment [24] deals with T6, Polyadenylate-binding protein 1 (Homo sapiens, UniProt P11940). In words: PABP1 MLLE–PAM2 interaction inhibitors, dose response, miRNA deadenylation inhibitor project, biochemical, fluorescence polarization, Cy5-PAM2 peptide, secondary (AID 602260). In kind it is functional. The conditions noted are these: read-out: IC50_Mean.
The target of a further experiment is Genome polyprotein (dengue virus type 2, UniProt P29990). In words: Dengue-2 NS5 methyltransferase inhibitors, primary screen, biochemical, confirmation dose response (AID 588689). The class given is functional.
For the next experiment, the system named is Vero. In words: Vero cell cytotoxicity, cytotoxicity control for flavivirus capping enzyme inhibitors (AID 588742). The class given is functional. The conditions noted are these: Chlorocebus sabaeus.
The target in experiment [25] is T6, Polyadenylate-binding protein 1. In words: PABP1 MLLE–PAM2 binding inhibitor potency, dose response, biochemical, fluorescence polarization, FITC-PAM2 peptide (AID 602259). The class given is functional. Conditions: read-out: IC50_Mean.

T6 sequence (P11940 whole entry): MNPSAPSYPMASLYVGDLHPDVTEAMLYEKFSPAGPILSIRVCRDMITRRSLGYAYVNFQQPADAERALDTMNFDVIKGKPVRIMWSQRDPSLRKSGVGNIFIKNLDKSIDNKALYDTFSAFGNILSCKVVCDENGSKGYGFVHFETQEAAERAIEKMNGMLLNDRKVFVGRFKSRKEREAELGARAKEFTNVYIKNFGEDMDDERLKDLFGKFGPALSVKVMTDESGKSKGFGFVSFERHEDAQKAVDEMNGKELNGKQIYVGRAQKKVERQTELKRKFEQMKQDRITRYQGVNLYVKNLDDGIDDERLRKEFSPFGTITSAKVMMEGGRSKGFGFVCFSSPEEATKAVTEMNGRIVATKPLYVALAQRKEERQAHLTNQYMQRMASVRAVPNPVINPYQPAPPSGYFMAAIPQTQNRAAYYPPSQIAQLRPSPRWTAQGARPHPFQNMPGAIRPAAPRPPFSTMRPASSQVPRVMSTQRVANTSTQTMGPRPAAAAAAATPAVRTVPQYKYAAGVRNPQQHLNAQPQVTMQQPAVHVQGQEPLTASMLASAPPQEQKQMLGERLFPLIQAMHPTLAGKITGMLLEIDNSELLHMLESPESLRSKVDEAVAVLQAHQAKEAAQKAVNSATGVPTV
T5 sequence (P63165 whole entry): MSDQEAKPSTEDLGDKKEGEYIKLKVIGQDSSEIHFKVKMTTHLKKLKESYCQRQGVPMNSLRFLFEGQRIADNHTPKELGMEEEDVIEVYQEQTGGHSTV
Genome polyprotein, sequence (P29990 2492-3391 limits assumed): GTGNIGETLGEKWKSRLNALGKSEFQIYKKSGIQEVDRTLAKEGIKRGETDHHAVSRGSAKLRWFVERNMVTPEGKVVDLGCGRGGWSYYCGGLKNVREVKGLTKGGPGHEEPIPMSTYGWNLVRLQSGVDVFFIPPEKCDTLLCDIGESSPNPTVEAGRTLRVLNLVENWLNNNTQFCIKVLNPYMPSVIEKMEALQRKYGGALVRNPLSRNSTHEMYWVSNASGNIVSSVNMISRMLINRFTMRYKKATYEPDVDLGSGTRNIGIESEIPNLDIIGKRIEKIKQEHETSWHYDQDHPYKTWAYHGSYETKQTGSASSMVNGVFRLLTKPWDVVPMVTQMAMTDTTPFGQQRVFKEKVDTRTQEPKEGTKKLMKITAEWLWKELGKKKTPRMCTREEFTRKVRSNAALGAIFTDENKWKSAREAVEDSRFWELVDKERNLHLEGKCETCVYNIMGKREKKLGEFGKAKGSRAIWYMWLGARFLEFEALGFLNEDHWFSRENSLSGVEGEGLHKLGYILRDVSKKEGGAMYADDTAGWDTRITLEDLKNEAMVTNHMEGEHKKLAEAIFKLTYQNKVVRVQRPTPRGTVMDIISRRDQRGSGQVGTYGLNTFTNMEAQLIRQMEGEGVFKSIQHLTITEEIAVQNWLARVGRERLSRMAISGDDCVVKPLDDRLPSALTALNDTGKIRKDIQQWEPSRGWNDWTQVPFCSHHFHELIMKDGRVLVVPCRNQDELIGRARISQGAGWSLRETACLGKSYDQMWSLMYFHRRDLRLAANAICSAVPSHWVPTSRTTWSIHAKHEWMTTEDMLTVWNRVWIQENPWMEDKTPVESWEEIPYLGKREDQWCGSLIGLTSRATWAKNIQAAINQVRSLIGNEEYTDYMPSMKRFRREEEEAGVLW
Exodeoxyribonuclease V, sequence (P04993 whole entry): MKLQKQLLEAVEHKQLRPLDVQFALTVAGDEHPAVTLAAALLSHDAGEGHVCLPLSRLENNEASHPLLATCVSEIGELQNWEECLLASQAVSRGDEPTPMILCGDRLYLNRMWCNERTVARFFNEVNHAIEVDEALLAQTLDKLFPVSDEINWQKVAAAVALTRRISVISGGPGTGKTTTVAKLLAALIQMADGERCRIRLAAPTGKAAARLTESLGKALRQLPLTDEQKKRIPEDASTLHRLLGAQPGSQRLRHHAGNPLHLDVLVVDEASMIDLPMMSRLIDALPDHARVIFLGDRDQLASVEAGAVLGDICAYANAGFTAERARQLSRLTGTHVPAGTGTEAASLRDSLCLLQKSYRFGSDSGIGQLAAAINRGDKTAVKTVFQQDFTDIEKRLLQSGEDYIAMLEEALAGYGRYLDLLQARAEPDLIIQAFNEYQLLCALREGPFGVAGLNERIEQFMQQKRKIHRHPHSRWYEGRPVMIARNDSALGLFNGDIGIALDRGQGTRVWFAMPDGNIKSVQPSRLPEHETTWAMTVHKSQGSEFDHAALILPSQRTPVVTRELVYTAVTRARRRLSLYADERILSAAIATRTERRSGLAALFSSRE
Exodeoxyribonuclease V, sequence (P07648 whole entry): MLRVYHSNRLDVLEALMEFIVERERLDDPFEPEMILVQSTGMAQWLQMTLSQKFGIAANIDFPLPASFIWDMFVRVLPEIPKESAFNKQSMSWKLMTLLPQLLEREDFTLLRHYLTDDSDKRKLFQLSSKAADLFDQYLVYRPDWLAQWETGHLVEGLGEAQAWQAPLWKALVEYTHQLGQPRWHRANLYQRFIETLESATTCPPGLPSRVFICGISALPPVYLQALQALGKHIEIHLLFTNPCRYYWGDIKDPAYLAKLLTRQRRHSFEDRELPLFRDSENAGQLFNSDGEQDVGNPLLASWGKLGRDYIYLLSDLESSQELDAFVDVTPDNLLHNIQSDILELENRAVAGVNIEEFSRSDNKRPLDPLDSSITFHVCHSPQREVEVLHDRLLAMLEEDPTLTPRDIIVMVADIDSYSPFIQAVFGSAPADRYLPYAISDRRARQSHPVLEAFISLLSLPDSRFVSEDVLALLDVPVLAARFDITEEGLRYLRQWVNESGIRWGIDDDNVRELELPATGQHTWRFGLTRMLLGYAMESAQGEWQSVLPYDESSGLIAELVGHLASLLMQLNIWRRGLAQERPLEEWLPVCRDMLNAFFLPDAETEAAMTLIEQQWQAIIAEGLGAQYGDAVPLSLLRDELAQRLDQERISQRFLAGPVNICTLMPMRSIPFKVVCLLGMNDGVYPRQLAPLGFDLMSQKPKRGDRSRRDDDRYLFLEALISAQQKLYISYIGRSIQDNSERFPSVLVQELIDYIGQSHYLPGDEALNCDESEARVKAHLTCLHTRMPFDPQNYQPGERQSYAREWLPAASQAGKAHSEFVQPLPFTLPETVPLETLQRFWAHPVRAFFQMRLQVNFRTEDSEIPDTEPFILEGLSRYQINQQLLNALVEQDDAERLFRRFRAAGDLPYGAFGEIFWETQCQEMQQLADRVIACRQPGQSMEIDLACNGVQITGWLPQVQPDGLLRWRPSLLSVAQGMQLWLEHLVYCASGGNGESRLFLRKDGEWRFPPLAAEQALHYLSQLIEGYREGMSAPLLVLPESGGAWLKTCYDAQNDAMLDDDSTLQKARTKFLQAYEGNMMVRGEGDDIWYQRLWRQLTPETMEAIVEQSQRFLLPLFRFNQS
Exodeoxyribonuclease V, sequence (P08394 whole entry): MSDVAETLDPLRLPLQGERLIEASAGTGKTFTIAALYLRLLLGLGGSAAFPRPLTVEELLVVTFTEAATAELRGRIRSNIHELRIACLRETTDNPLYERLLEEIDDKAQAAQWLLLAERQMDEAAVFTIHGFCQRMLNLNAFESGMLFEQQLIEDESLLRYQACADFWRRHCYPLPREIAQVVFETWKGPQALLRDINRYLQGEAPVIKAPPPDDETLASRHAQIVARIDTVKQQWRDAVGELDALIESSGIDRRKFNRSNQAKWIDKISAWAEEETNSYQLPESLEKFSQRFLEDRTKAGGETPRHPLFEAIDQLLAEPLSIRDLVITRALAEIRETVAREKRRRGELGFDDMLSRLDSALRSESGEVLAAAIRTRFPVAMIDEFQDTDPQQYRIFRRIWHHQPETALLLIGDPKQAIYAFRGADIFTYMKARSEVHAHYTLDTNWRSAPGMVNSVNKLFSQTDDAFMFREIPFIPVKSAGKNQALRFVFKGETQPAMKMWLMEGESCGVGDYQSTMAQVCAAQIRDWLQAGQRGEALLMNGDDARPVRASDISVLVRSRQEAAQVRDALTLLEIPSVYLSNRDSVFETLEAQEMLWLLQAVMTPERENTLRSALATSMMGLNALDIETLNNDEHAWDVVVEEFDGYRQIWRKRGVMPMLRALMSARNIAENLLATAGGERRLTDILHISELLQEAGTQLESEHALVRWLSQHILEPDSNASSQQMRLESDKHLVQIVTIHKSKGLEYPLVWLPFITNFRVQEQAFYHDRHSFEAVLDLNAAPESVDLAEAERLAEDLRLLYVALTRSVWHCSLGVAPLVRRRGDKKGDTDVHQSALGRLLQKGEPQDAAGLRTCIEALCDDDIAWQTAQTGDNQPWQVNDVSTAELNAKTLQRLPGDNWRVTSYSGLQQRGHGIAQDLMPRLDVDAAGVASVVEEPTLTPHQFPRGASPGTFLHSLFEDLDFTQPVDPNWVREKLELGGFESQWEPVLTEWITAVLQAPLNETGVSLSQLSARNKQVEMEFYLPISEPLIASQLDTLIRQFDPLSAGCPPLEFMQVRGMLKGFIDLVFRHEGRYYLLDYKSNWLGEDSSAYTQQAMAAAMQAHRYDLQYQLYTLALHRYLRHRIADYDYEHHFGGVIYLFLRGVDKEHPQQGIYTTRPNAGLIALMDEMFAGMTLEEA
Nonstructural protein 1, sequence (Q194T2 whole entry): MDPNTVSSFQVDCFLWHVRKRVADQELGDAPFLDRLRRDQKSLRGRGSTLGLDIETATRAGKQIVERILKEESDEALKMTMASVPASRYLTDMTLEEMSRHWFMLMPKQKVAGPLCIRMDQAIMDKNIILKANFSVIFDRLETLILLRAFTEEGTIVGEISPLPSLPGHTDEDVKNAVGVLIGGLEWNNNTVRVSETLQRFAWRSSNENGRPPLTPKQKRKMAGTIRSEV

With `CCCC(=O)NC(c1ccccc1)c1ccc2cccnc2c1O` (configuration not stated), the EC50 (as a rule, the concentration needed to bring the measured effect to its halfway point) in experiment [1] was > 160 µM (inactive); in [2] it was 0.463 µM (active); in experiment [3] it was 0.565 µM (active); in experiment [6] it was 16.6 µM (inconclusive); in experiment [7], 1.01 µM (active); in the experiment “cells [9]”, > 350 µM (not active). In addition, the figures for the EC50 (in “cells [12]”; in [17]) were 6.78 µM (active) and > 180 µM (inactive), respectively. Further, the IC50 in the experiment with Jurkat [4] is 6.27 µM (active); in the experiment with HEK293 [8], 7.31 µM (active); in the experiment with HEK293 [11] (Homo sapiens, HEK293) it was 13.6 µM (active); with HEK293 [11] (hek293) it was 8.74 µM (active); on Nonstructural protein 1, 21.5 µM (active); with HEK293 [13], 10.5 µM (active). Besides, the IC50 in [14] is > 119 µM (inactive); with Jurkat [15], 3.81 µM (active); on Exodeoxyribonuclease V, > 119 µM (inactive). Also, the AC50 – broadly, the concentration at which the activity in the assay is half-maximal – is 1.99 µM (active) in experiment [5]; 2.88 µM (active) in experiment [10]; 1.89 µM (active) in experiment [16]; 4.65 µM (active) in experiment [18]; 0.664 µM (active) in the experiment on INS1.

As for `CCOC(=O)C1Nc2ccc(C(=O)O)cc2C2C=CCC12` (configuration not stated), the EC50 is 38.9 µM (active) in [19] and 20.3 µM (active) in [20]. For the same molecule, the AC50 on ORF 73 was 42.9 µM (active). The IC50 in [21] was 305 µM (active); in experiment [22], > 66.6 µM (inactive); in experiment [23], 39 µM (inactive); in [24], > 66 µM (inactive); on Genome polyprotein it was 44.9 µM (active); in experiment [25], > 66 µM (inactive). Also, the CC50 – broadly, the concentration giving 50% cytotoxicity – in the experiment with Vero is > 40 µM (active).
